The values below are quoted from earlier work in patent US20230043979A1, “PHOSPHODIESTERASE-4 INHIBITOR COMBINATIONS, METHODS OF MAKING, AND METHODS OF USE THEREOF” (VK RESEARCH ASSOCIATES INC., priority 2021, published 2023).

By half-life is commonly meant the time in which the quantity being followed falls by half.

For this data set the following is noted: for Median plasma/elimination Half-life (T1/2): Table 1, PDE4 inhibitors, in h; for half-life / median time to maximum concentration: oral administration.

For `CCOc1cc([C@@H](CS(C)(=O)=O)N2C(=O)c3cccc(NC(C)=O)c3C2=O)ccc1OC` [Apremilast], the “Median plasma/elimination Half-life (T1/2)” value is recorded as 6 to 9.
For the molecule `COc1ccc(C2CNC(=O)C2)cc1OC1CCCC1` (stereo not shown) [Rolipram], the “Median plasma/elimination Half-life (T1/2)” value is listed as 3, the half-life entry is recorded as “about 3 hours” and the “median time to maximum concentration” value is reported as “about 30 minutes”.
Turning to `N#Cc1ccc(Oc2ccc3c(c2)COB3O)cc1` [Crisaborole], the “Median plasma/elimination Half-life (T1/2)” value is 11.9 ± 8.3.
With `CC(C)C(=O)c1c(C(C)C)nn2ccccc12` [Ibudilast], the “Median plasma/elimination Half-life (T1/2)” value is listed as 19.
For the molecule `O=C(Nc1c(Cl)cncc1Cl)c1ccc(OC(F)F)c(OCC2CC2)c1` [Roflumilast], the “Median plasma/elimination Half-life (T1/2)” value is on record as 17 - 30, the half-life was 17 to 30 h and the “median time to maximum concentration” value is 1 to 2 h.
Take `COc1ccc([C@]2(C#N)CC[C@@H](C(=O)O)CC2)cc1OC1CCCC1` [Cilomilast]: the “Median plasma/elimination Half-life (T1/2)” value is recorded as 7.
